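How tested: cells in 96-well plates exposed to compound for 48 hours at five concentrations. At the TGI there is no net growth.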
How the values were obtained:
Assay in all cases: NCI tumour cell line growth inhibition, 48 h
[1] = test system: M19-MEL melanoma
[2] = test system: HCT-116 colon
[3] = test system: DMS 114 small cell lung
[4] = test system: LOX IMVI melanoma
[5] = test system: OVCAR-5 ovarian
[6] = test system: KM12 colon
[7] = test system: NCI-H522 lung
[8] = test system: LXFL 529 NSCLC
[9] = test system: CAKI-1 renal
[10] = test system: SNB-75 CNS
[11] = test system: HOP-92 NSCLC
[12] = test system: SF-268 CNS
[13] = test system: COLO 205 colon
[14] = test system: SN12C renal
[15] = test system: SW-620 colon
[16] = test system: SF-295 CNS
[17] = test system: ACHN renal
[18] = test system: HCC-2998 colon
[19] = test system: HOP-18 NSCLC
[20] = test system: UO-31 renal
[21] = test system: KM20L2 colon
[22] = test system: DMS 273 small cell lung
[23] = test system: U251 CNS
[24] = test system: NCI-H226 lung
[25] = test system: NCI-H23 lung
[26] = test system: SNB-19 CNS
[27] = test system: SF-539 CNS
[28] = test system: HL-60(TB) leukemia
[29] = test system: UACC-257 melanoma
[30] = test system: M14 melanoma
[31] = test system: SK-MEL-2 melanoma
[32] = test system: OVCAR-4 ovarian
[33] = test system: 786-0 renal
[34] = test system: MALME-3M melanoma
[35] = test system: TK-10 renal
[36] = test system: NCI-H460 lung
[37] = test system: EKVX NSCLC
[38] = test system: SK-MEL-28 melanoma
[39] = test system: SNB-78 CNS
[40] = test system: OVCAR-8 ovarian
[41] = test system: HOP-62 NSCLC
[42] = test system: RXF 393 renal
[43] = test system: A549 NSCLC
[44] = test system: XF 498 CNS
[45] = test system: HT29 colon
[46] = test system: K-562 leukemia
[47] = test system: A498 renal
[48] = test system: UACC-62 melanoma
[49] = test system: RPMI-8226 leukemia
[50] = test system: SK-MEL-5 melanoma
[51] = test system: HCT-15 colon
[52] = test system: MOLT-4 leukemia
[53] = test system: IGROV1 ovarian
[54] = test system: DLD-1 colon
[55] = test system: SK-OV-3 ovarian
[56] = test system: OVCAR-3 ovarian
[57] = test system: CCRF-CEM leukemia
[58] = test system: RXF-631 renal
[59] = test system: SR leukemia

CCc1cc(C)cc2[n+]1CC=C2
TGI [1]: 52.4 µM
TGI [2]: 48.2 µM
TGI [3]: 44.3 µM
TGI [4]: > 100 µM
TGI [5]: 56.6 µM
TGI [6]: > 100 µM
TGI [7]: 51.9 µM
TGI [8]: 79.2 µM
TGI [9]: > 100 µM
TGI [10]: 70.6 µM
TGI [11]: 45 µM
TGI [12]: > 100 µM
TGI [13]: 81.5 µM
TGI [14]: 78.6 µM
TGI [15]: > 100 µM
TGI [16]: > 100 µM
TGI [17]: 35.4 µM
TGI [18]: > 100 µM
TGI [19]: 0.0991 µM
TGI [20]: 68.9 µM
TGI [21]: 95.6 µM
TGI [22]: 6.55 µM
TGI [23]: > 100 µM
TGI [24]: 80.8 µM
TGI [25]: 53.8 µM
TGI [26]: > 100 µM
TGI [27]: 95.6 µM
TGI [28]: 12.8 µM
TGI [29]: 39.7 µM
TGI [30]: 80.7 µM
TGI [31]: 40.2 µM
TGI [32]: > 100 µM
TGI [33]: > 100 µM
TGI [34]: 67.5 µM
TGI [35]: > 100 µM
TGI [36]: 93.9 µM
TGI [37]: 87.9 µM
TGI [38]: > 100 µM
TGI [39]: > 100 µM
TGI [40]: > 100 µM
TGI [41]: 51.3 µM
TGI [42]: > 100 µM
TGI [43]: 78.6 µM
TGI [44]: 20.4 µM
TGI [45]: 75.2 µM

COC(=O)Cc1c([C@@]2(C)CCCC(C)(C)C2)ccc2c1C(=O)OC2
TGI [1]: 69.6 µM
TGI [2]: 22 µM
TGI [3]: 20.4 µM
TGI [4]: 24.2 µM
TGI [46]: 19.4 µM
TGI [47]: 41.8 µM
TGI [6]: 30.6 µM
TGI [48]: 31.4 µM
TGI [7]: 19.8 µM
TGI [8]: 27.2 µM
TGI [10]: 28.7 µM
TGI [11]: 8.38 µM
TGI [49]: 14.6 µM
TGI [13]: 26.4 µM
TGI [14]: 23 µM
TGI [15]: > 100 µM
TGI [16]: 26.1 µM
TGI [17]: 48.2 µM
TGI [19]: 47.1 µM
TGI [20]: 15.3 µM
TGI [22]: 21 µM
TGI [50]: 25.6 µM
TGI [51]: 24.1 µM
TGI [52]: 18.2 µM
TGI [23]: 29.7 µM
TGI [24]: 28.4 µM
TGI [25]: 34.6 µM
TGI [53]: 47.5 µM
TGI [27]: 31.6 µM
TGI [28]: 13.3 µM
TGI [29]: 22.8 µM
TGI [30]: 26.1 µM
TGI [33]: 30.8 µM
TGI [54]: 12.2 µM
TGI [55]: 32.3 µM
TGI [34]: 38 µM
TGI [35]: 59.3 µM
TGI [36]: 33.3 µM
TGI [37]: 59.7 µM
TGI [38]: 34.9 µM
TGI [39]: 37.3 µM
TGI [40]: > 100 µM
TGI [42]: 27.9 µM
TGI [43]: 32.4 µM
TGI [56]: 20.7 µM
TGI [45]: 28.4 µM
TGI [57]: 22.2 µM
TGI [58]: 29.4 µM

Nc1nc(NCCOCP(=O)(O)O)c([N+](=O)[O-])c(=O)[nH]1
TGI [1]: > 100 µM
TGI [2]: > 100 µM
TGI [4]: > 100 µM
TGI [46]: > 100 µM
TGI [6]: > 100 µM
TGI [48]: > 100 µM
TGI [7]: > 100 µM
TGI [8]: > 100 µM
TGI [10]: > 100 µM
TGI [11]: > 100 µM
TGI [49]: > 100 µM
TGI [12]: > 100 µM
TGI [13]: > 100 µM
TGI [14]: > 100 µM
TGI [15]: > 100 µM
TGI [16]: > 100 µM
TGI [17]: > 100 µM
TGI [18]: > 100 µM
TGI [19]: > 100 µM
TGI [20]: > 100 µM
TGI [21]: > 100 µM
TGI [22]: > 100 µM
TGI [52]: > 100 µM
TGI [23]: > 100 µM
TGI [24]: > 100 µM
TGI [25]: > 100 µM
TGI [53]: > 100 µM
TGI [26]: > 100 µM
TGI [27]: > 100 µM
TGI [28]: > 100 µM
TGI [29]: > 100 µM
TGI [30]: > 100 µM
TGI [31]: > 100 µM
TGI [33]: > 100 µM
TGI [54]: > 100 µM
TGI [55]: > 100 µM
TGI [34]: > 100 µM
TGI [35]: > 100 µM
TGI [36]: > 100 µM
TGI [37]: > 100 µM
TGI [38]: > 100 µM
TGI [39]: > 100 µM
TGI [40]: > 100 µM
TGI [41]: > 100 µM
TGI [42]: > 100 µM
TGI [43]: > 100 µM
TGI [44]: > 100 µM
TGI [56]: > 100 µM
TGI [45]: > 100 µM
TGI [57]: > 100 µM
TGI [59]: > 100 µM

Cc1[nH]c(=O)nc(N/N=C/c2ccc(O)cc2)c1C(=O)Nc1ccc(O)cc1
TGI [1]: > 100 µM
TGI [2]: > 100 µM
TGI [3]: > 100 µM
TGI [46]: > 100 µM
TGI [47]: > 100 µM
TGI [48]: > 100 µM
TGI [7]: > 100 µM
TGI [8]: > 100 µM
TGI [9]: > 100 µM
TGI [10]: > 100 µM
TGI [11]: > 100 µM
TGI [49]: > 100 µM
TGI [12]: > 100 µM
TGI [13]: > 100 µM
TGI [14]: > 100 µM
TGI [18]: > 100 µM
TGI [20]: > 100 µM
TGI [22]: > 100 µM
TGI [52]: > 100 µM
TGI [24]: > 100 µM
TGI [25]: > 100 µM
TGI [53]: > 100 µM
TGI [27]: > 100 µM
TGI [28]: > 100 µM
TGI [30]: > 100 µM
TGI [31]: > 100 µM
TGI [32]: > 100 µM
TGI [33]: > 100 µM
TGI [54]: > 100 µM
TGI [55]: > 100 µM
TGI [34]: > 100 µM
TGI [36]: > 100 µM
TGI [38]: > 100 µM
TGI [39]: > 100 µM
TGI [41]: > 100 µM
TGI [44]: > 100 µM
TGI [57]: > 100 µM
TGI [59]: > 100 µM

— PubChem BioAssay (NCI)
